Test results reported in patent US20020026051A1, “Dithiepino [6,5-b]pyridines, and related compositions and methods” (priority 1999, published 2002).

The molecules below were run against T1, calcium channel (Oryctolagus cuniculus, UniProt P15381) (assay: Assay for Inhibition of Nitrendipine Binding (3H-nitrendipine, heart membranes)). Conditions: 3H-nitrendipine displacement, rabbit heart membranes; Tables 1-5.
T1 construct: from tissue; host or cells: rabbit heart membrane preparation
Method: Female, New Zealand white rabbits (1-2 kg) are sacrificed by cervical dislocation, and the heart is immediately removed, cleaned and chopped into small pieces. The tissue is homogenized in 5× times volume of 0.05M Hepes buffer, pH 7.4. The homogenate is centrifuged at 4000 g for 10 minutes, and the supernatant is re-centrifuged at 42,000×g for 90 minutes. The resulting membrane pellet is resuspended (0.7 ml/g weight) in 0.05M Hepes, pH 7.4 and stored at […] until used. Each tube of the binding assay contains ^3H-nitrendipine (0.05-0.50 nM), buffer, membranes (0.10 ml), and test compound in a total volume of 1.0 ml. After 90 minutes at 4° C., the bound nitrendipine is separated from the unbound by filtration on Whatman GF/C filters. After rinsing, the filters are dried and counted in a liquid scintillation counter.
Non-specific binding of ^3H-nitrendipine (that amount bound in the presence of excess unlabelled nitrendipine) is subtracted from the total bound to obtain specifically bound radiolabeled nitrendipine. The amount of specifically bound nitrendipine in the presence of a test compound is compared to that amount bound in the absence of a compound. A percent displacement (or inhibition) can then be calculated.

T1 sequence (P15381 whole entry, other chains not shown): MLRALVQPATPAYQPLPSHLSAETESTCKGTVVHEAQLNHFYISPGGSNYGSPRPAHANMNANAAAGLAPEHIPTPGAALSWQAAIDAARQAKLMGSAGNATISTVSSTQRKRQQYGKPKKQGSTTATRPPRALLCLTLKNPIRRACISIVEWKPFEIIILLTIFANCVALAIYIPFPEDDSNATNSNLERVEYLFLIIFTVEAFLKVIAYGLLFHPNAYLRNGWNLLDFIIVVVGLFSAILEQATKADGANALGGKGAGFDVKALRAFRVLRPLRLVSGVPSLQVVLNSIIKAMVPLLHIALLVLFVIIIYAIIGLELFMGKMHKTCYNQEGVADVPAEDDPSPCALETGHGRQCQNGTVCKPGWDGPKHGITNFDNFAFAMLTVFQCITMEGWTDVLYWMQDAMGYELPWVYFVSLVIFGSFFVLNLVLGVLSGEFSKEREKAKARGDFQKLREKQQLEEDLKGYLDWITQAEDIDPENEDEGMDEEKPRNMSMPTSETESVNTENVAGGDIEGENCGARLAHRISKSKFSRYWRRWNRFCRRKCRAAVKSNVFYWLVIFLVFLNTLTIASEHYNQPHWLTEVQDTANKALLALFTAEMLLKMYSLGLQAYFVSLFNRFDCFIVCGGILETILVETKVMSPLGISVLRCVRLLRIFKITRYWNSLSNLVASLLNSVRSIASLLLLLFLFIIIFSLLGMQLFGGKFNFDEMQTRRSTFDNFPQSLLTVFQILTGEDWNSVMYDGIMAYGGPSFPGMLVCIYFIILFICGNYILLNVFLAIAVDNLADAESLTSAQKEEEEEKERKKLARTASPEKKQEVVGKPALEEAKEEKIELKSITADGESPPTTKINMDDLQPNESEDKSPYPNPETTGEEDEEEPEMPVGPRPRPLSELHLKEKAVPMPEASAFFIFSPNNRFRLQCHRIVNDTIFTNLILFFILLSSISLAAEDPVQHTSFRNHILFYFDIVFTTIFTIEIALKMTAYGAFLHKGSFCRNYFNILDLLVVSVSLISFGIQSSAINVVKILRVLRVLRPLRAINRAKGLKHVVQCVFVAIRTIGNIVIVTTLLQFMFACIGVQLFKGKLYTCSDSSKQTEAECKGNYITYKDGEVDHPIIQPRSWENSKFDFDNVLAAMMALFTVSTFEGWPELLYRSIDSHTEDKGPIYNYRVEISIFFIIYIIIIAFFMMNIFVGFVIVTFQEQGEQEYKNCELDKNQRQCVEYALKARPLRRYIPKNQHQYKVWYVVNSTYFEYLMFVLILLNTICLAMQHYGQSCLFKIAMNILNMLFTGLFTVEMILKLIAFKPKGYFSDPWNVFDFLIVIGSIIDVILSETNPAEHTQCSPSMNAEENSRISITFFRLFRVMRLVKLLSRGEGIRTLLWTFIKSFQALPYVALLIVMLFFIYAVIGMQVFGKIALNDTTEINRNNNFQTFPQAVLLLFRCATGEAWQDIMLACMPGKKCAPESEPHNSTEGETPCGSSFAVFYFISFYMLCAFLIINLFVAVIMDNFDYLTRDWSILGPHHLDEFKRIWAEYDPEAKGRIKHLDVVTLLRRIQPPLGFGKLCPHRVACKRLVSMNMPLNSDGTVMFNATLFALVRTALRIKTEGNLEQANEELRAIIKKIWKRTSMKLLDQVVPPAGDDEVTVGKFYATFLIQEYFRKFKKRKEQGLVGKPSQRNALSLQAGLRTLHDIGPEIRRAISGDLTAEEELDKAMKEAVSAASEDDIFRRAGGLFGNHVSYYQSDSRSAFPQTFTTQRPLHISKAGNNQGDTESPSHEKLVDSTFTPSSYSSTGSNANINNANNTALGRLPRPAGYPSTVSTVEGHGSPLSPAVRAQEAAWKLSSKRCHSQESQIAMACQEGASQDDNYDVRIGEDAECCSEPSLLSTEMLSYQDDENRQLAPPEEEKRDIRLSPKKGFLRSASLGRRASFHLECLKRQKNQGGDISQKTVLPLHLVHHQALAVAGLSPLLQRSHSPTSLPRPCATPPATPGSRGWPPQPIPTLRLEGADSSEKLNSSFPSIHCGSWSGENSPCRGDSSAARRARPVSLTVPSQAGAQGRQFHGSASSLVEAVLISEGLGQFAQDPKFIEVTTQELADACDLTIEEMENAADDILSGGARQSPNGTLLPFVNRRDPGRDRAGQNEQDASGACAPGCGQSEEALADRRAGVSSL
T1 sequence (P13806 27-960 partner limits assumed, other chains not shown): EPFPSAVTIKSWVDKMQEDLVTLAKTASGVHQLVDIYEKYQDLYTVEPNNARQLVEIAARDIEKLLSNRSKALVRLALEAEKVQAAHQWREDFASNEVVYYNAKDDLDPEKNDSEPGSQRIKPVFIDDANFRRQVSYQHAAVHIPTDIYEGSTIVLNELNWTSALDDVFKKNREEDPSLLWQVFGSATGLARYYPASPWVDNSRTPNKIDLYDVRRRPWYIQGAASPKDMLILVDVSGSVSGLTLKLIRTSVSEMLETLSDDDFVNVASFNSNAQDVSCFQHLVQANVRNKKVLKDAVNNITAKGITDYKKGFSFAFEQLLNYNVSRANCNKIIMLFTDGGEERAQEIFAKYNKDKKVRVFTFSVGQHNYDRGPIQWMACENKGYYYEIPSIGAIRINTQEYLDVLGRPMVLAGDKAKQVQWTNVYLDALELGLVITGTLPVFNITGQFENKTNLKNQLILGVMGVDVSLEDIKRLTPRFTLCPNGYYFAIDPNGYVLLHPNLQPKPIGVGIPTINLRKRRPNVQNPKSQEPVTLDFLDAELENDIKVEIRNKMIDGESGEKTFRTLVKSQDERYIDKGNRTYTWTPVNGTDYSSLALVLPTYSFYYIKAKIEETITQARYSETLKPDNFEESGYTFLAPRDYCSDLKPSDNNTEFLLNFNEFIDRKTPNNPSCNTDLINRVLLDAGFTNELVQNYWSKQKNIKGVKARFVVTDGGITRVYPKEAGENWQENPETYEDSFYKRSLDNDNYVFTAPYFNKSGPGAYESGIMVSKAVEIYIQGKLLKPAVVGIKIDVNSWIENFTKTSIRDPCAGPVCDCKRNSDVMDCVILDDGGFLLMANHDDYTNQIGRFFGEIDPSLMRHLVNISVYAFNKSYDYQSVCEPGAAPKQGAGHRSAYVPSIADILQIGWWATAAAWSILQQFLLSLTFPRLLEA
T1 sequence (P13806 961-1106 partner limits assumed, other chains not shown): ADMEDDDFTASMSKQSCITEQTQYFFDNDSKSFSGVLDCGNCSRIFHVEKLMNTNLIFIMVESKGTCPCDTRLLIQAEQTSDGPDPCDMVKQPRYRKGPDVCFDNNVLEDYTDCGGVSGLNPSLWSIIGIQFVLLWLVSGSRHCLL

| SMILES | IC50 |
| --- | --- |
| CC1=C(C(=O)OCCN(C)Cc2cccs2)C(c2cc(F)c(F)c(F)c2)C2=C(CS(=O)(=O)CCS2(=O)=O)N1 (centres unmarked) [Compound 10, 5H-1,4-Dithiepino[6,5-b]pyridine-8-carboxylic acid, 2,3,6,9-tetrahydro-7-methyl-9-(3,4,5-trifluorophenyl)-2-[methyl(2-thienylmethyl)amino]ethyl ester 1,1,4,4-tetraoxide] | 24 nM |
| COC(=O)C1=C(C)NC2=C(C1c1cccc(F)c1F)S(=O)(=O)CCS(=O)(=O)C2 (centres unmarked) [Compound 18, 5H-1,4-Dithiepino[6,5-b]pyridine-8-carboxylic acid, 9-(2,3-difluorophenyl)-2,3,6,9-tetrahydro-7-methyl-methyl ester 1,1,4,4-tetraoxide] | 68 nM |
| COC(=O)C1=C(C)NC2=C(C1c1ccccc1Cl)S(=O)(=O)CCS(=O)(=O)C2 (centres unmarked) [Compound 15, 5H-1,4-Dithiepino[6,5-b]pyridine-8-carboxylic acid, 9-(2-chlorophenyl)-2,3,6,9-tetrahydro-7-methyl-methyl ester 1,1,4,4-tetraoxide] | 61 nM |
| C=C1CS(=O)(=O)C2=C(CS1(=O)=O)NC(C)=C(C(=O)OC)C2c1cccc(C(F)(F)F)c1F (centres unmarked) [Compound 20, 5H-1,4-Dithiepino[6,5-b]pyridine-8-carboxylic acid, 9-[2-fluoro-3-(trifluoromethyl)phenyl]-2,3,6,9-tetrahydro-7-methyl-3-methylene-methyl ester 1,1,4,4-tetraoxide] | 21 nM |
| CC1=C(C(=O)OCCN(C)Cc2ccccc2)[C@H](c2c(F)cccc2Cl)C2=C(CS(=O)(=O)CCS2(=O)=O)N1 (single isomer, unassigned) [Compound 3, 5H-1,4-Dithiepino[6,5-b]pyridine-8-carboxylic acid, 9-(2-chloro-6-fluorophenyl)-2,3,6,9-tetrahydro-7-methyl-2-[methyl(phenylmethyl)amino]ethyl ester 1,1,4,4-tetraoxide] | 160000 nM |
| CC1=C(C(=O)OCCN(C)Cc2ccccc2)C(c2cc(F)c(F)c(F)c2)C2=C(CS(=O)(=O)CCS2(=O)=O)N1 (centres unmarked) [Compound 9, 5H-1,4-Dithiepino[6,5-b]pyridine-8-carboxylic acid, 2,3,6,9-tetrahydro-7-methyl-9-(3,4,5-trifluorophenyl)-2-[methyl(phenylmethyl)amino]ethyl ester 1,1,4,4-tetraoxide] | 13 nM |
| COC(=O)C1=C(C)NC2=C(C1c1ccccc1[N+](=O)[O-])S(=O)(=O)CCS(=O)(=O)C2 (centres unmarked) [Compound 19, 5H-1,4-Dithiepino[6,5-b]pyridine-8-carboxylic acid, 2,3,6,9-tetrahydro-7-methyl-9-(2-nitrophenyl)-methyl ester 1,1,4,4-tetraoxide] | 210 nM |
| CC1=C(C(=O)OCCN(C)Cc2ccccc2)C(c2cccc(C(F)(F)F)c2F)C2=C(CS(=O)(=O)CCS2(=O)=O)N1 (centres unmarked) [Compound 7, 5H-1,4-Dithiepino[6,5-b]pyridine-8-carboxylic acid, 9-[2-fluoro-3-(trifluoromethyl)phenyl]-2,3,6,9-tetrahydro-7-methyl-2-[methyl(phenylmethyl)amino]ethyl ester 1,1,4,4-tetraoxide] | 18 nM |
| CC1=C(C(=O)OCCN(C)Cc2ccccc2)C(c2c(F)cccc2C(F)(F)F)C2=C(CS(=O)(=O)CCCS2(=O)=O)N1 (centres unmarked) [Compound 26, 2H,6H-1,5-Dithiocino[3,2-b]pyridine-9-carboxylic acid, 10-[2-fluoro-6-(trifluoromethyl)phenyl]-3,4,7,10-tetrahydro-8-methyl-2-[methyl(phenylmethyl)amino]ethyl ester 1,1,5,5-tetraoxide] | 28 nM |
| CC1=C(C(=O)OCCN(C)Cc2ccccc2)C(c2ccccc2Cl)C2=C(CS(=O)(=O)CS2(=O)=O)N1 (centres unmarked) [Compound 32, 4H-1,3-Dithiino[5,4-b]pyridine-7-carboxylic acid, 8-(2-chlorophenyl)-5,8-dihydro-6-methyl-2-[methyl(phenylmethyl)amino]ethyl ester 1,1,3,3-tetraoxide] | 39 nM |
| CC1=C(C(=O)OCCN(C)Cc2ccccc2)C(c2c(O)cccc2Cl)C2=C(CS(=O)(=O)CCS2(=O)=O)N1 (centres unmarked) [Compound 4, 5H-1,4-Dithiepino[6,5-b]pyridine-8-carboxylic acid, 9-(2-chloro-6-hydroxyphenyl)-2,3,6,9-tetrahydro-7-methyl-2-[methyl(phenylmethyl)amino]ethyl ester 1,1,4,4-tetraoxide] | 390 nM |

Same assay, conditions: 3H-nitrendipine displacement, rabbit heart membranes; Tables 6-7

| SMILES | IC50 |
| --- | --- |
| CC1=C(C(=O)OCCOC(=O)C(C)C)C(c2cccc(Cl)c2Cl)C2=C(CS(=O)(=O)CCS2(=O)=O)N1 (centres unmarked) [Compound 34, 5H-[1,4]dithiepino[6,5-b]pyridine-8-carboxylic acid, 9-(2,3-dichlorophenyl)-2,3,6,9-tetrahydro-7-methyl-, 2-(2-methyl-1-oxopropoxy)ethyl ester, 1,1,4,4-tetraoxide] | 15 nM |
| CC1=C(C(=O)OCC(=O)OCCc2ccccc2)C(c2c(F)cccc2Cl)C2=C(CS(=O)(=O)CCS2(=O)=O)N1 (centres unmarked) [Compound 59] | 154 nM |
| CC1=C(C(=O)OCC(=O)OC(C)(C)C)C(c2c(F)cccc2Cl)C2=C(CS(=O)(=O)CCS2(=O)=O)N1 (centres unmarked) [Compound 69, 7-methyl-9-[2-fluoro-6-chlorophenyl]-2,3,6,9-tetrahydro-1,1,4,4-tetraoxide 5H-1,4-Dithiepino[6,5-b]pyridine-8-carboxylic acid 2-(1,1-dimethylethyloxy)-2-oxoethyl ester] | 356 nM |
| CC1=C(C(=O)OC2CCOC2=O)C(c2c(F)cccc2Cl)C2=C(CS(=O)(=O)CCS2(=O)=O)N1 (centres unmarked) [Compound 60] | 174 nM |
| CC1=C(C(=O)OCCOC(=O)C2CCc3ccccc3C2)C(c2c(F)cccc2Cl)C2=C(CS(=O)(=O)CCS2(=O)=O)N1 (centres unmarked) [Compound 42, 7-methyl-9-[2-fluoro-6-chlorophenyl]-2,3,6 9-tetrahydo-1,1,4,4-tetraoxide 5H-1,4-Dithiepino[6,5-b]pyridine-8-carboxlic acid 2-[1,2,3,4-tetrahydo-2-napthoyl]oxyethyl ester] | 44 nM |
| CC1=C(C(=O)OCCOC(=O)CC(C)C)C(c2c(F)cccc2Cl)C2=C(CS(=O)(=O)CCS2(=O)=O)N1 (centres unmarked) [Compound 38] | 35 nM |
| COc1cccc(C(=O)OCCOC(=O)C2=C(C)NC3=C(C2c2c(F)cccc2Cl)S(=O)(=O)CCS(=O)(=O)C3)c1 (centres unmarked) [Compound 40] | 41 nM |
| CC1=C(C(=O)OCCOC(=O)c2ccc(C#N)cc2)C(c2c(F)cccc2Cl)C2=C(CS(=O)(=O)CCS2(=O)=O)N1 (centres unmarked) [Compound 48] | 55 nM |
| CC1=C(C(=O)OCCOC(=O)c2ccc(OC(C)C)cc2)C(c2c(F)cccc2Cl)C2=C(CS(=O)(=O)CCCS2(=O)=O)N1 (centres unmarked) [Compound 99, 2H,6H-[1,5]dithiocino[3,2-b]pyridine-9-carboxylic acid, 10-(2-chloro-6-fluorophenyl)-3,4,7,10-tetrahydro-8-methyl-, 2-[[4-(1-methylethoxy)benzoyl]oxy]ethyl ester, 1,1,5,5-tetraoxide] | 40 nM |
| CC1=C(C(=O)OCCCOC(=O)c2ccccc2)C(c2c(F)cccc2Cl)C2=C(CS(=O)(=O)CCS2(=O)=O)N1 (centres unmarked) [Compound 41, 7-methyl-9-[2-fluoro-6-chlorophenyl]-2,3,6,9-tetrahydro-1,1,4,4-tetraoxide 5H-1,4-Dithiepino[6,5-b]pyridine-8-carboxylic acid 3-benzoyloxypropyl ester] | 43 nM |
| CC1=C(C(=O)OCCOC(=O)C(N)C(C)C)C(c2c(F)cccc2Cl)C2=C(CS(=O)(=O)CCS2(=O)=O)N1 (centres unmarked) [Compound 92] | 5800 nM |
| CC1=C(C(=O)OCC(=O)OCCN(C)Cc2ccccc2)C(c2c(F)cccc2Cl)C2=C(CS(=O)(=O)CCS2(=O)=O)N1 (centres unmarked) [Compound 74, 7-methyl-9-[2-fluoro-6-chlorophenyl]-2,3,6,9-tetrahydro-1,1,4,4-tetraoxide 5H-1,4-Dithiepino[6,5-b]pyridine-8-carboxylic acid carboxy-2-(1-N-methylbenzylamine)ethyl ester] | 420 nM |
| CC1=C(C(=O)OCCOC(=O)c2ccc3ccccc3c2)C(c2c(F)cccc2Cl)C2=C(CS(=O)(=O)CCS2(=O)=O)N1 (centres unmarked) [Compound 46] | 50 nM |
| CC1=C(C(=O)OCCOC(=O)C(N)CCCCN)C(c2c(F)cccc2Cl)C2=C(CS(=O)(=O)CCS2(=O)=O)N1 (centres unmarked) [Compound 96] | 51000 nM |
| CC(=O)OCCCOC(=O)C1=C(C)NC2=C(C1c1c(F)cccc1Cl)S(=O)(=O)CCS(=O)(=O)C2 (centres unmarked) [Compound 68] | 340 nM |
| CC1=C(C(=O)OCCOC(=O)CN(C)Cc2ccccc2)C(c2c(F)cccc2Cl)C2=C(CS(=O)(=O)CCS2(=O)=O)N1 (centres unmarked) [Compound 47] | 50 nM |
| CC1=C(C(=O)OCCOC(=O)CN)C(c2c(F)cccc2Cl)C2=C(CS(=O)(=O)CCS2(=O)=O)N1 (centres unmarked) [Compound 97] | 150000 nM |
| CC1=C(C(=O)OCCOC(=O)C(C)Cc2ccccc2)C(c2c(F)cccc2Cl)C2=C(CS(=O)(=O)CCS2(=O)=O)N1 (centres unmarked) [Compound 37] | 33 nM |
| CC1=C(C(=O)OCCOC(=O)C(C)C)C(c2c(F)cccc2Cl)C2=C(CS(=O)(=O)CCS2(=O)=O)N1 (centres unmarked) [Compound 64] | 220 nM |
| CC1=C(C(=O)OCCC2CCOC2=O)C(c2cccc(Cl)c2Cl)C2=C(CS(=O)(=O)CCS2(=O)=O)N1 (centres unmarked) [Compound 63] | 194 nM |
| CC1=C(C(=O)OCC(=O)O)C(c2c(F)cccc2Cl)C2=C(CS(=O)(=O)CCS2(=O)=O)N1 (centres unmarked) [Compound 98, 7-methyl-9-[2-fluoro-6-chlorophenyl]-2,3,6,9-tetrahydro-1,1,4,4-tetraoxide 5H-1,4-Dithiepino[6,5-b]pyridine-8-carboxylic acid carboxymethyl ester] | 316000 nM |
